Source: patent US9738634B2, “Heterocyclic amide compound and herbicide” (SYNGENTA PARTICIPATIONS AG, priority 2013, dated 2017)

How the values were obtained:
Format in all cases: in vivo
Conditions in all cases: treatment dosage 320 g/ha
corn [1] = experiment: Test Example 3: soil treatment, effect on crop; c: corn
In short: (§1)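 Crop and weed responses were judged three weeks after a uniform surface spray of the water-diluted emulsion at the given g/ha rate. Seeds sat beneath about 1.5 cm of sterilized diluvial soil, and boxes stood in a greenhouse at 25 to 30° C.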

black-grass [2] = experiment: Test Example 4: weedkilling efficacy by foliar treatment; H: black-grass
In short: (§2)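 Seeds are spot-sown into sterilized diluvial soil and covered with about 1.5 cm of soil. After 14 days' greenhouse growth at 25 to 30° C, plants are sprayed on stems and leaves with diluted emulsion at the stated g/ha rate, then scored at 3 weeks.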

oval-leafed pondweed [3] = experiment: Test Example 1: weedkilling efficacy, preemergent weed treatment in the submerged state; C: oval-leafed pondweed
In short: (§3)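 Emulsion diluted with water to the specified per-hectare dosage is applied onto flood water (4 cm) over alluvial soil on the sowing day, with barnyard grass, bulrush and pondweed seeded and rice (2.5-leaf) transplanted; plants grow at 25–30 °C and are rated at 3 weeks.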

common wind-grass [4] = experiment: Test Example 3: weedkilling efficacy through soil treatment; J: common wind-grass
In short: as §1

wild oat [5] = experiment: Test Example 4: weedkilling efficacy by foliar treatment; G: wild oat
In short: as §2

barnyard grass [6] = experiment: Test Example 2: weedkilling efficacy, growth period weed treatment in the submerged state; A: barnyard grass
In short: (§4)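 First, alluvial soil in pots is flooded to 4 cm and mixed seed is sown. Next, plants grow in a greenhouse at 25 to 30° C until the 1-2 leaf stage. Then diluted emulsion is applied onto the water surface at the given g/ha rate, and injury is assessed after 3 weeks.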

black-grass [7] = experiment: Test Example 3: weedkilling efficacy through soil treatment; H: black-grass
In short: as §1

soybean [8] = experiment: Test Example 4: foliar treatment, effect on crop; d: soybean
In short: as §2

redroot pigweed [9] = experiment: Test Example 4: weedkilling efficacy by foliar treatment; L: redroot pigweed
In short: as §2

wheat [10] = experiment: Test Example 4: foliar treatment, effect on crop; e: wheat
In short: as §2

catchweed [11] = experiment: Test Example 3: weedkilling efficacy through soil treatment; O: catchweed
In short: as §1

oval-leafed pondweed [12] = experiment: Test Example 2: weedkilling efficacy, growth period weed treatment in the submerged state; C: oval-leafed pondweed
In short: as §4

chickweed [13] = experiment: Test Example 4: weedkilling efficacy by foliar treatment; N: chickweed
In short: as §2

fig-leafed goosefoot [14] = experiment: Test Example 4: weedkilling efficacy by foliar treatment; M: fig-leafed goosefoot
In short: as §2

wheat [15] = experiment: Test Example 3: soil treatment, effect on crop; e: wheat
In short: as §1

soybean [16] = experiment: Test Example 3: soil treatment, effect on crop; d: soybean
In short: as §1

Italian ryegrass [17] = experiment: Test Example 4: weedkilling efficacy by foliar treatment; I: Italian ryegrass
In short: as §2

beet [18] = experiment: Test Example 3: soil treatment, effect on crop; f: beet
In short: as §1

birds-eye speedwell = experiment: Test Example 4: weedkilling efficacy by foliar treatment; p: birds-eye speedwell
In short: as §2

Italian ryegrass [19] = experiment: Test Example 3: weedkilling efficacy through soil treatment; I: Italian ryegrass
In short: as §1

catchweed [20] = experiment: Test Example 4: weedkilling efficacy by foliar treatment; O: catchweed
In short: as §2

Indian mallow [21] = experiment: Test Example 3: weedkilling efficacy through soil treatment; K: Indian mallow
In short: as §1

corn [22] = experiment: Test Example 4: foliar treatment, effect on crop; c: corn
In short: as §2

beet [23] = experiment: Test Example 4: foliar treatment, effect on crop; f: beet
In short: as §2

wild oat [24] = experiment: Test Example 3: weedkilling efficacy through soil treatment; G: wild oat
In short: as §1

bulrush [25] = experiment: Test Example 1: weedkilling efficacy, preemergent weed treatment in the submerged state; B: bulrush
In short: as §3

barnyard grass [26] = experiment: Test Example 1: weedkilling efficacy, preemergent weed treatment in the submerged state; A: barnyard grass
In short: as §3

chickweed [27] = experiment: Test Example 3: weedkilling efficacy through soil treatment; N: chickweed
In short: as §1

common wind-grass [28] = experiment: Test Example 4: weedkilling efficacy by foliar treatment; J: common wind-grass
Procedure: Testing of Weedkilling Efficacy by Foliar Treatment
Sterilized diluvial soil was introduced into 21 cm long, 13 cm wide, 7 cm deep plastic boxes, and seeds of crabgrass, green foxtail, barnyard grass, wild oat, black-grass, Italian ryegrass, common wind-grass, Indian mallow, redroot pigweed, fig-leafed goosefoot, chickweed, catchweed, birds-eye speedwell, corn, soybean, rice, wheat, beet and rapeseed were each spot-sown, and covered with about 1.5 cm of soil, then the plants were grown in a greenhouse at 25 to 30° C.
After they had grown for 14 days, emulsions of compounds of the present invention prepared according to compounding example 2 were diluted with water to give the specified dosages, and applied uniformly onto the stem and leaf parts with a small sprayer. 3 weeks after the pesticide treatment the effect on each type of plant was investigated on the basis of the assessment criteria of test example 1.
A: barnyard grass, B: bulrush, C: oval-leafed pondweed, D: crabgrass, E: green foxtail, F: barnyard grass, G: wild oat, H: black-grass, I: Italian ryegrass, J: common wind-grass, K: Indian mallow, L: redroot pigweed, M: fig-leafed goosefoot, N: chickweed, O: catchweed, p: birds-eye speedwell, a: transplanted rice, b: directly sown rice, c: corn, d: soybean, e: wheat, f: beet, g: rapeseed
Further, pesticide dosage (g/ha) indicates the concentration regulated such that treatment was with only the stated number of grams (g), when calculated per hectare (ha).

transplanted rice = experiment: Test Example 1: preemergent weed treatment in the submerged state, effect on crop; a: transplanted rice
In short: as §3

redroot pigweed [29] = experiment: Test Example 3: weedkilling efficacy through soil treatment; L: redroot pigweed
In short: as §1

Indian mallow [30] = experiment: Test Example 4: weedkilling efficacy by foliar treatment; K: Indian mallow
In short: as §2

bulrush [31] = experiment: Test Example 2: weedkilling efficacy, growth period weed treatment in the submerged state; B: bulrush
In short: as §4

fig-leafed goosefoot [32] = experiment: Test Example 3: weedkilling efficacy through soil treatment; M: fig-leafed goosefoot
In short: as §1

For COC(=O)c1ccnc(NC(=O)C(C)(C)N2COC(C)=C(c3ccccc3)C2=O)c1 [B-2-61], which “c (corn) effect on crop grade” value (corn [1]) is on record?
The value was 0 (weed kill ratio 5% or less (practically no effect)).

And the “H (black-grass) weedkilling efficacy grade” value (black-grass [2])?
The value was 0 (weed kill ratio 5% or less (practically no effect)).

What about the “C (oval-leafed pondweed) weedkilling efficacy grade” value (oval-leafed pondweed [3]) of the same compound?
The value was 4 (weed kill ratio 70% or more, less than 90%).

What about the “J (common wind-grass) weedkilling efficacy grade” value (common wind-grass [4]) of the same compound?
Its value is 5 (weed kill ratio 90% or more, (practically complete withering)).

And the “G (wild oat) weedkilling efficacy grade” value (wild oat [5])?
The value was 0 (weed kill ratio 5% or less (practically no effect)).

And the “A (barnyard grass) weedkilling efficacy grade” value (barnyard grass [6])?
Its value is 0 (weed kill ratio 5% or less (practically no effect)).

And the “H (black-grass) weedkilling efficacy grade” value (black-grass [7])?
The value was 4 (weed kill ratio 70% or more, less than 90%).

And the “d (soybean) effect on crop grade” value (soybean [8])?
The value was 0 (weed kill ratio 5% or less (practically no effect)).

What about the “L (redroot pigweed) weedkilling efficacy grade” value (redroot pigweed [9]) of the same compound?
Its value is 0 (weed kill ratio 5% or less (practically no effect)).

And the “e (wheat) effect on crop grade” value (wheat [10])?
The value was 0 (weed kill ratio 5% or less (practically no effect)).

What about the “O (catchweed) weedkilling efficacy grade” value (catchweed [11]) of the same compound?
Its value is 0 (weed kill ratio 5% or less (practically no effect)).

What about the “C (oval-leafed pondweed) weedkilling efficacy grade” value (oval-leafed pondweed [12]) of the same compound?
The value was 2 (weed kill ratio 20% or more, less than 40%).

And the “N (chickweed) weedkilling efficacy grade” value (chickweed [13])?
The value was 0 (weed kill ratio 5% or less (practically no effect)).

And the “M (fig-leafed goosefoot) weedkilling efficacy grade” value (fig-leafed goosefoot [14])?
Its value is 0 (weed kill ratio 5% or less (practically no effect)).

What about the “e (wheat) effect on crop grade” value (wheat [15]) of the same compound?
Its value is 0 (weed kill ratio 5% or less (practically no effect)).

What about the “d (soybean) effect on crop grade” value (soybean [16]) of the same compound?
The value was 0 (weed kill ratio 5% or less (practically no effect)).

What about the “I (Italian ryegrass) weedkilling efficacy grade” value (Italian ryegrass [17]) of the same compound?
The value was 0 (weed kill ratio 5% or less (practically no effect)).

And the “f (beet) effect on crop grade” value (beet [18])?
The value was 0 (weed kill ratio 5% or less (practically no effect)).

What about the “P (birds-eye speedwell) weedkilling efficacy grade” value (birds-eye speedwell) of the same compound?
Its value is 2 (weed kill ratio 20% or more, less than 40%).

What about the “I (Italian ryegrass) weedkilling efficacy grade” value (Italian ryegrass [19]) of the same compound?
Its value is 2 (weed kill ratio 20% or more, less than 40%).

And the “O (catchweed) weedkilling efficacy grade” value (catchweed [20])?
Its value is 0 (weed kill ratio 5% or less (practically no effect)).

What about the “K (Indian mallow) weedkilling efficacy grade” value (Indian mallow [21]) of the same compound?
Its value is 0 (weed kill ratio 5% or less (practically no effect)).

What about the “c (corn) effect on crop grade” value (corn [22]) of the same compound?
Its value is 0 (weed kill ratio 5% or less (practically no effect)).

And the “f (beet) effect on crop grade” value (beet [23])?
Its value is 2 (weed kill ratio 20% or more, less than 40%).

What about the “G (wild oat) weedkilling efficacy grade” value (wild oat [24]) of the same compound?
The value was 0 (weed kill ratio 5% or less (practically no effect)).

What about the “B (bulrush) weedkilling efficacy grade” value (bulrush [25]) of the same compound?
The value was 0 (weed kill ratio 5% or less (practically no effect)).

And the “A (barnyard grass) weedkilling efficacy grade” value (barnyard grass [26])?
The value was 0 (weed kill ratio 5% or less (practically no effect)).

What about the “N (chickweed) weedkilling efficacy grade” value (chickweed [27]) of the same compound?
Its value is 0 (weed kill ratio 5% or less (practically no effect)).

What about the “J (common wind-grass) weedkilling efficacy grade” value (common wind-grass [28]) of the same compound?
The value was 1 (weed kill ratio 5% or more, less than 20%).

And the “a (transplanted rice) effect on crop grade” value (transplanted rice)?
The value was 0 (weed kill ratio 5% or less (practically no effect)).

And the “L (redroot pigweed) weedkilling efficacy grade” value (redroot pigweed [29])?
The value was 0 (weed kill ratio 5% or less (practically no effect)).

And the “K (Indian mallow) weedkilling efficacy grade” value (Indian mallow [30])?
Its value is 0 (weed kill ratio 5% or less (practically no effect)).

What about the “B (bulrush) weedkilling efficacy grade” value (bulrush [31]) of the same compound?
Its value is 2 (weed kill ratio 20% or more, less than 40%).

What about the “M (fig-leafed goosefoot) weedkilling efficacy grade” value (fig-leafed goosefoot [32]) of the same compound?
The value was 0 (weed kill ratio 5% or less (practically no effect)).
